Test results taken from PubChem BioAssay AID179 (DTP/NCI, 2004).
Calls of active or inactive are those of the source.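 The calls were made as follows: active = compounds giving half or more protection of infected cells from virus-caused growth loss, again on retest; inactive = the rest.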

Test system: CEM cells HIV-1 protection, formazan growth assay
Assay: NCI AIDS Antiviral Assay
Conditions: for IC50: measured here: growth of uninfected CEM cells
Procedure, shortened: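 Protection of CEM cells against HIV-1 was scored from cell growth (soluble formazan) across five concentrations, with parallel uninfected cells. Lack of protection may reflect toxicity.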

| SMILES | outcome | EC50 [µM] | IC50 [µM] |
| --- | --- | --- | --- |
| COc1cccc(/C=N/[N-]C(N)=O)c1[O-].[Cu+2].[OH3+].c1ccc(-c2ccccn2)nc1 | inactive | – | – |
| O=C(O)C1COCN1C(=O)c1ccccc1SSc1ccccc1C(=O)N1COCC1C(=O)O (configuration not stated) | – | > 200 | > 200 |
| C[C@]12CCC3[C@@H](CC[C@@H]4c5nonc5CC[C@]34C)C1CCC2=O (some centres not stated) | – | > 57.5 | > 57.5 |
| C=CCCOC(=O)CO[N+](=O)[O-] | inactive | – | – |
| CCOC(=O)c1ccc(N=NC2Sc3nc4ccccc4n3C2=O)cc1 (configuration not stated) | inactive | – | – |
| COc1ccc(/C=C2/SC(=S)NC2=O)c(OC)c1OC | – | > 200 | 7.76 |
| Oc1ccc(C2SCc3nc4ccccc4n32)cc1 (configuration not stated) | – | > 26.9 | > 26.9 |
| O=C(NNC(=S)Nc1ccc(Br)cc1)c1cc(-c2ccccc2)nc2ccccc12 | – | > 200 | 9.77 |
| C=CCCCCCCCCC(=O)NC(C)COC (configuration not stated) | – | > 200 | 107 |
| O=C(/C=C/c1ccccc1)/C=N/N1C(=S)N(c2ccccc2)C(=Nc2ccccc2)C1=Nc1ccccc1 | – | > 200 | > 200 |
| CCCCCCCCCCOC(=O)NCCC | inactive | – | – |
| O=C1c2cccc3cccc(c23)C(=O)N1c1ncn[nH]1 | – | > 100 | > 100 |
| CN(C)CC1(C)Cc2sccc2C1=O (configuration not stated) | – | > 200 | > 200 |
| N#Cc1ncoc1N | – | > 200 | > 200 |
| CSC1C(=O)Nc2ccc3ccccc3c21 (configuration not stated) | – | > 200 | 10.2 |
| c1cc(-c2nc(-c3ccncc3)nc(-c3ccncc3)n2)ccn1 | – | > 200 | > 200 |
| CNC1C(O)CC(OC2C/C=C(\C)C/C(C)=C/C=C/CCC(C)CNC(=O)/C=C/C=C/C2C)OC1C (configuration not stated) | – | > 37.2 | 1.95 |
| C1CCC(N([P-]P([P-]N(C2CCCCC2)C2CCCCC2)N(C2CCCCC2)C2CCCCC2)C2CCCCC2)CC1.[C-]#[O+].[C-]#[O+].[C-]#[O+].[C-]#[O+].[C-]#[O+].[C-]#[O+].[Fe].[Fe] (configuration not stated) | – | > 0.603 | > 0.603 |
| CCc1c2cc(OC)c(OC)cc2cc2c3cc(OC)c(OC)cc3cc[n+]12 (tested in a mixture with another compound) | – | > 234 | 33.9 |
| COCc1c(C)oc2c(C)c3oc(=O)cc(C)c3cc12 | – | > 110 | > 110 |
| CC1=CC(c2ccccc2)OP1(=O)c1ccccc1 (configuration not stated) | – | > 200 | > 200 |

| SMILES | outcome | EC50 [µM] | IC50 [µM] |
| --- | --- | --- | --- |
| CC(=O)Nc1ccc(N2C(=O)/C(=C\c3cccc(Oc4ccccc4)c3)S(=O)(=O)C2c2ccccc2)cc1 (configuration not stated) | – | > 200 | 26.9 |
| COc1ccc(-c2[nH]c3ccccc3c2CCNS(=O)(=O)c2ccc(C)cc2)cc1 | inactive | – | – |
| CCN(CC)CCOC(NC(C)=O)(c1ccccc1)c1ccccc1 | – | > 200 | > 200 |
| NCCCCC(NC(=O)C(CS)NC(=O)C(N)Cc1cnc[nH]1)C(=O)NC(Cc1ccccc1)C(=O)NC(Cc1c[nH]c2ccccc12)C(=O)NC(Cc1c[nH]c2ccccc12)C(N)=O (configuration not stated) | – | > 50.1 | > 50.1 |
| Cc1cc(O)c2c(c1)C([C@]13Cc4cc(O)c5c(c4[C@H]1C=C[C@@H](O)C3O)C(=O)c1c(O)ccc(O)c1C5=O)OC2=O (some centres not stated) | – | > 6.61 | > 6.61 |
| O=C(/C=C/c1cc(O)ccc1O)OCCc1ccccc1 | – | > 45.7 | 6.17 |
| C/C(=C\CCC1=CC(=O)OC1)CC[C@@H]1[C@H]2C(=O)CC(C)[C@@]3(C)CC[C@]1(C)[C@@]23C (some centres not stated) | – | > 200 | 34.7 |
| CCCCCCCCCCCCCCCC(=O)OC1C(O)C(O)C(O)C(O)C12CO2 (configuration not stated) | – | > 20 | 7.08 |
| C[C@]12CCC(=O)O[C@H]1CCCCO2 | – | > 200 | > 200 |
| CN(C)C=NCc1ccc2c(c1)OCO2 | – | 51.3 | 479 |
| O=[N+]([O-])c1cc(Cl)cc2cc(Br)cnc12 | – | > 200 | > 200 |
| O=C1/C(=C/c2ccc3c(c2)CCC3)Cc2cc3c(cc21)CCC3 | – | > 200 | > 200 |
| COCC[P+](c1ccccc1)(c1ccccc1)c1ccccc1 | – | > 200 | 7.76 |
| CCCCCCCCCCCCCP(=O)(OC)OC | inactive | – | – |
| O=S(=O)(O)c1cc(N=Nc2ccc(O)c3ccccc23)ccc1/C=C/c1ccc(N=Nc2ccc(O)c3ccccc23)cc1S(=O)(=O)O | – | 13.5 | 50.1 |
| C=C(C)C(CCC(=O)O)(CCC(=O)O)C(C)=O | – | > 1020 | > 1020 |
| O=[N+]([O-])c1ccc2cnn(CN3CCCCC3)c2c1 | – | > 200 | 89.1 |
| COC(=O)C1(O)c2ccccc2N=C2C1CCN2C (configuration not stated) | – | > 27.5 | > 27.5 |
| COC(=O)C(Cc1c[nH]c2ccccc12)NC(=O)C(Cc1cnc[nH]1)NC(=O)C1CCC(=O)N1C(=O)OCc1ccccc1 (configuration not stated) | – | > 200 | > 200 |
| O=C(N[C@@H](c1ccccc1)[C@@H](O)C(=O)OCc1ccc([N+](=O)[O-])cc1)c1ccccc1 | – | > 200 | 151 |
| CC1C(c2ccc3c(c2)OCO3)c2cc3c(cc2OC1N1CCCC1)OCO3 (configuration not stated) | – | > 100 | 47.9 |

| SMILES | outcome | EC50 [µM] | IC50 [µM] |
| --- | --- | --- | --- |
| CCOC(=O)c1nc(SC)sc1NC(=O)c1ccc(OC)cc1 | – | 162 | > 200 |
| C=CCC1CC(n2cc(C)c(=O)[nH]c2=O)OC1CO[Si](C)(C)C(C)(C)C (configuration not stated) | – | > 200 | 18.2 |
| CC(C)(C)C1CCC2c3c([nH]c4ccccc34)C3C(=O)N(c4ccc(C#N)cc4)C(=O)C3C2C1 (configuration not stated) | – | > 200 | 10 |
| O=C1C2C3C=C4c5ccccc5N(c5ccccc5)C4([C@@H]2C(=O)N1c1ccc(F)cc1)[C@H]1C(=O)N(c2ccc(F)cc2)C(=O)[C@@H]31 (some centres not stated) | – | > 12 | > 12 |
| CC(C)(c1ccc(C=O)o1)c1ccc(C(C)(C)c2ccc(C=O)o2)o1 | inactive | – | – |
| CCCCCCn1c(SC)nc(COC(=O)NC)c1COC(=O)NC | – | > 200 | 35.5 |
| NC1=NN(c2ccccc2)C(=O)/C1=C\n1c(=S)[nH]c2ccccc21 | – | > 200 | > 200 |
| CC(=O)C(=Cc1cccc(F)c1)C(C)=O | – | > 126 | 64.6 |
| Cc1ccc(Cl)c(NC(=O)C(=O)C(C(=O)c2ccncc2)C2OC(=O)c3ccccc32)c1 (configuration not stated) | – | > 562 | 166 |
| Nc1cn2ncnc2c(=O)[nH]1 | – | > 174 | > 174 |
| CC(=O)OCCCOCn1c(Cc2ccccc2)c(C(C)C)c(=O)[nH]c1=O | – | 0.0794 | 89.1 |
| N#CSc1nc[nH]c1C(N)=O | – | > 200 | 10 |
| Cc1ccc(S(=O)(=O)c2ccc(O)cc2)cc1 | – | > 200 | 129 |
| Cc1c(C(N)=C(C#N)C#N)c(=N)oc2ccccc12 | – | > 200 | 36.3 |
| Cc1ccc(-c2nc3ccccc3c(=O)n2NC2OC(CO)C(O)C(O)C2O)cc1 (configuration not stated) | inactive | – | – |
| COC(=O)C(C)Sc1nc2cc(Cl)ccc2s1 (configuration not stated) | – | > 200 | 174 |
| Oc1ccc(Cl)cc1/C=N/Nc1nnc(N/N=C/c2cc(Cl)ccc2O)c2ccccc12 | – | > 200 | 1 |
| CCOC(=O)CNC(=O)c1ccccc1SC(=O)CCCC[n+]1ccccc1 | – | > 20 | 0.363 |
| CC1(C)C2CCC(O)(C2)C1N (configuration not stated) | – | > 200 | > 200 |
| CCCCS(=O)(=O)c1ccc(O)c(C(=O)Nc2cccc(C(F)(F)F)c2)c1 | – | > 170 | 1.91 |
| CCOC(=O)CC1(c2cccc3ccccc23)OC(=O)c2ccccc21 (configuration not stated) | inactive | – | – |
